Measured values from the supplement of paper PMC4862054.

Test system: HCC1143
Test: drug sensitivity score (DSS), CellTox Green (DSS (AUC-based score)); higher = stronger drug effect (viability inhibition or cytotoxicity); extreme values may be limits of the assay
Details: incubation time: 72 h
Procedure, shortened: (§1)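 For 72 h, breast cancer cell lines seeded at 20 µl suspension per well in 384-well plates were incubated with compound at 5 concentrations in 10-fold steps spanning a 10,000-fold range that differed by compound. The first reading was CellTox Green fluorescence at 485/520 nm, and the second was CellTiter-Glo luminescence after 10 min at room temperature. Both were normalised per plate to 0.1 % DMSO and a positive kill control, and the drug sensitivity score was obtained from the area under the fitted dose-response curve.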

Structure (SMILES) | drug sensitivity score
Cc1ccc(-c2cc(C(F)(F)F)nn2-c2ccc(S(N)(=O)=O)cc2)cc1 [Celecoxib] | 0
COc1cc2c(NC3CCN(C(C)C)CC3)nc(C3CCCCC3)nc2cc1OCCCN1CCCC1 [UNC0638] | 0
COc1cc([C@@H]2c3cc4c(cc3[C@@H](O[C@@H]3O[C@@H]5CO[C@@H](c6cccs6)O[C@H]5[C@H](O)[C@H]3O)[C@H]3COC(=O)[C@H]23)OCO4)cc(OC)c1O [Teniposide] | 0
CCc1cncnc1N1CCN(Cc2nc3ccc(C(F)(F)F)cc3[nH]2)CC1 | 0
COc1cc2nccc(Oc3ccc(NC(=O)Nc4cc(C)on4)c(Cl)c3)c2cc1OC [Tivozanib] | 0

Test system: HCC1599
Test: as above
Details: incubation time: 72 h
Procedure, shortened: as §1

Structure (SMILES) | drug sensitivity score
CC(=O)Nc1cccc(-n2c(=O)n(C3CC3)c(=O)c3c(Nc4ccc(I)cc4F)n(C)c(=O)c(C)c32)c1 [Trametinib] | 0
C=CCc1cccc(/C=N/NC(=O)CN2CCN(Cc3ccccc3)CC2)c1O [PAC-1] | 0
Nc1nc(F)nc2c1ncn2[C@@H]1O[C@H](CO)[C@@H](O)[C@@H]1O [Fludarabine] | 0
Nc1ncn([C@H]2C[C@H](O)[C@@H](CO)O2)c(=O)n1 [Decitabine] | 0
CC[C@@H]1C(=O)N(C)c2cnc(Nc3ccc(C(=O)NC4CCN(C)CC4)cc3OC)nc2N1C1CCCC1 [BI 2536] | 0
CC[C@H](C)C(=O)O[C@H]1C[C@H](O)C=C2C=C[C@H](C)[C@H](CC[C@@H](O)C[C@@H](O)CC(=O)O)[C@H]21 [Pravastatin] | 0
O=C(O)C(=O)O.[NH-][C@@H]1CCCC[C@H]1[NH-].[Pt+2] [Oxaliplatin] | 0
CCN(CC)CCCC(C)Nc1c2ccc(Cl)cc2nc2ccc(OC)cc12 (stereo not drawn) [Mepacrine] | 0
Cc1ccc(-c2cc(C(F)(F)F)nn2-c2ccc(S(N)(=O)=O)cc2)cc1 [Celecoxib] | 0
COc1cc2c(NC3CCN(C(C)C)CC3)nc(C3CCCCC3)nc2cc1OCCCN1CCCC1 [UNC0638] | 1.89
COc1cc([C@@H]2c3cc4c(cc3[C@@H](O[C@@H]3O[C@@H]5CO[C@@H](c6cccs6)O[C@H]5[C@H](O)[C@H]3O)[C@H]3COC(=O)[C@H]23)OCO4)cc(OC)c1O [Teniposide] | 3.84
CCc1cncnc1N1CCN(Cc2nc3ccc(C(F)(F)F)cc3[nH]2)CC1 | 0
COc1cc2nccc(Oc3ccc(NC(=O)Nc4cc(C)on4)c(Cl)c3)c2cc1OC [Tivozanib] | 0

Test system: HCC1937
Test: as above
Details: incubation time: 72 h
Procedure, shortened: as §1

Structure (SMILES) | drug sensitivity score
CC(=O)Nc1cccc(-n2c(=O)n(C3CC3)c(=O)c3c(Nc4ccc(I)cc4F)n(C)c(=O)c(C)c32)c1 [Trametinib] | 0
C=CCc1cccc(/C=N/NC(=O)CN2CCN(Cc3ccccc3)CC2)c1O [PAC-1] | 0
Nc1nc(F)nc2c1ncn2[C@@H]1O[C@H](CO)[C@@H](O)[C@@H]1O [Fludarabine] | 0
Nc1ncn([C@H]2C[C@H](O)[C@@H](CO)O2)c(=O)n1 [Decitabine] | 0
CC[C@@H]1C(=O)N(C)c2cnc(Nc3ccc(C(=O)NC4CCN(C)CC4)cc3OC)nc2N1C1CCCC1 [BI 2536] | 0
CC[C@H](C)C(=O)O[C@H]1C[C@H](O)C=C2C=C[C@H](C)[C@H](CC[C@@H](O)C[C@@H](O)CC(=O)O)[C@H]21 [Pravastatin] | 0
O=C(O)C(=O)O.[NH-][C@@H]1CCCC[C@H]1[NH-].[Pt+2] [Oxaliplatin] | 0
CCN(CC)CCCC(C)Nc1c2ccc(Cl)cc2nc2ccc(OC)cc12 (stereo not drawn) [Mepacrine] | 0
Cc1ccc(-c2cc(C(F)(F)F)nn2-c2ccc(S(N)(=O)=O)cc2)cc1 [Celecoxib] | 0
COc1cc2c(NC3CCN(C(C)C)CC3)nc(C3CCCCC3)nc2cc1OCCCN1CCCC1 [UNC0638] | 7.61
COc1cc([C@@H]2c3cc4c(cc3[C@@H](O[C@@H]3O[C@@H]5CO[C@@H](c6cccs6)O[C@H]5[C@H](O)[C@H]3O)[C@H]3COC(=O)[C@H]23)OCO4)cc(OC)c1O [Teniposide] | 8.06
CCc1cncnc1N1CCN(Cc2nc3ccc(C(F)(F)F)cc3[nH]2)CC1 | 0
COc1cc2nccc(Oc3ccc(NC(=O)Nc4cc(C)on4)c(Cl)c3)c2cc1OC [Tivozanib] | 0

Test system: HDQ-P1
Test: as above
Details: incubation time: 72 h
Procedure, shortened: as §1

Structure (SMILES) | drug sensitivity score
CC(=O)Nc1cccc(-n2c(=O)n(C3CC3)c(=O)c3c(Nc4ccc(I)cc4F)n(C)c(=O)c(C)c32)c1 [Trametinib] | 0
C=CCc1cccc(/C=N/NC(=O)CN2CCN(Cc3ccccc3)CC2)c1O [PAC-1] | 0
Nc1nc(F)nc2c1ncn2[C@@H]1O[C@H](CO)[C@@H](O)[C@@H]1O [Fludarabine] | 0
Nc1ncn([C@H]2C[C@H](O)[C@@H](CO)O2)c(=O)n1 [Decitabine] | 0
CC[C@@H]1C(=O)N(C)c2cnc(Nc3ccc(C(=O)NC4CCN(C)CC4)cc3OC)nc2N1C1CCCC1 [BI 2536] | 0
CC[C@H](C)C(=O)O[C@H]1C[C@H](O)C=C2C=C[C@H](C)[C@H](CC[C@@H](O)C[C@@H](O)CC(=O)O)[C@H]21 [Pravastatin] | 0
O=C(O)C(=O)O.[NH-][C@@H]1CCCC[C@H]1[NH-].[Pt+2] [Oxaliplatin] | 1
CCN(CC)CCCC(C)Nc1c2ccc(Cl)cc2nc2ccc(OC)cc12 (stereo not drawn) [Mepacrine] | 0
Cc1ccc(-c2cc(C(F)(F)F)nn2-c2ccc(S(N)(=O)=O)cc2)cc1 [Celecoxib] | 0
COc1cc2c(NC3CCN(C(C)C)CC3)nc(C3CCCCC3)nc2cc1OCCCN1CCCC1 [UNC0638] | 1.42
COc1cc([C@@H]2c3cc4c(cc3[C@@H](O[C@@H]3O[C@@H]5CO[C@@H](c6cccs6)O[C@H]5[C@H](O)[C@H]3O)[C@H]3COC(=O)[C@H]23)OCO4)cc(OC)c1O [Teniposide] | 7.08
CCc1cncnc1N1CCN(Cc2nc3ccc(C(F)(F)F)cc3[nH]2)CC1 | 0
